From article PMC2248166, “Quantitative peptide binding motifs for 19 human and mouse MHC class I molecules derived using positional scanning combinatorial peptide libraries” (Immunome Research, 2008)
Where a SMILES comes first, the peptide text is derived from it.

Tests used:
Assay in all cases: biochemical
Type in all cases: binding
[1] = molecular target: HLA A*3201 (Homo sapiens, UniProt P04439, A270S/D101S/D185E/E176V/E277Q/F133L/G103R/G107R/G231S/H175R/I121M/I218V/I322F/K168Q/L105A/L300P/L318F/M331R/P208A/P217A/Q94H/R106L/R138Q/S129P/T104I/T323A/T345S/V100E/V321M/V358M)
[2] = molecular target: HLA A*3001 (Homo sapiens, UniProt P04439, D140H/D185E/E176W/F33S/G80R/H175R/K168Q/R138E/R41S)
Chain of HLA A*3001 (P04439 25-365 limits assumed, stated change not applied): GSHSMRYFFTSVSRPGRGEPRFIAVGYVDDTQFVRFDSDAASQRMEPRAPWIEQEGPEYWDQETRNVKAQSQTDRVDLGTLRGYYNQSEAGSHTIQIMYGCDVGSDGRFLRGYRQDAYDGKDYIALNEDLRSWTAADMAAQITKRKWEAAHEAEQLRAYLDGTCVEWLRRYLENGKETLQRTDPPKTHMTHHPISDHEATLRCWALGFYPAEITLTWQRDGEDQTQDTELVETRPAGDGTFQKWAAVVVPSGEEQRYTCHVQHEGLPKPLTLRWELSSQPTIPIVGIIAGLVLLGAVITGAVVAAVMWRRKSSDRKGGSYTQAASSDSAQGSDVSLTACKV

[3] = molecular target: HLA B*1501 (Homo sapiens, UniProt P01889, A329T/A93T/A95T/C349S/D201E/D98Y/E187L/E204Q/E69M/E70A/K202T/N87E/Q94N/R155S/R180W/S121R/S35A/S48A/V306I/V36M/Y140S/Y91S)
[4] = molecular target: HLA B*1503 (Homo sapiens, UniProt P01889, A329T/A93T/A95T/C349S/D201E/D98Y/E187L/E204Q/K202T/N87E/Q94N/R155S/R180L/S121R/S35A/V306I/V36M/Y140S/Y91S)

Row | Structure (SMILES) | IC50 [1] | IC50 [2] | IC50 [3] | IC50 [4]
1 | CC(C)[C@H](NC(=O)[C@H](Cc1ccccc1)NC(=O)[C@@H](NC(=O)[C@H](Cc1c[nH]cn1)NC(=O)[C@H](CCC(=O)O)NC(=O)[C@H](CCCNC(=N)N)NC(=O)[C@@H](NC(=O)[C@@H](N)CCCCN)C(C)C)[C@@H](C)O)C(=O)N[C@@H](CCCCN)C(=O)O [3102.0071] (H-KVREHTFVK-OH) | 149 nM | 2.1 nM |  | 
2 | CC[C@H](C)[C@H](N)C(=O)N[C@H](C(=O)N[C@@H](Cc1ccc(O)cc1)C(=O)N[C@@H](CO)C(=O)N[C@@H](CC(C)C)C(=O)N[C@H](C(=O)N[C@H](C(=O)N[C@H](C(=O)N[C@H](C(=O)O)[C@@H](C)CC)[C@@H](C)O)[C@@H](C)O)C(C)C)C(C)C [3102.0292] (H-IVYSLVTTI-OH) | 3.6 nM | 16 nM |  | 
3 | CC[C@H](C)[C@H](NC(=O)[C@@H](NC(=O)[C@@H](N)CCCCN)[C@@H](C)O)C(=O)N[C@@H](Cc1ccc(O)cc1)C(=O)N[C@@H](C)C(=O)N[C@H](C(=O)N[C@@H](CC(=O)O)C(=O)N[C@@H](CO)C(=O)N[C@@H](Cc1ccccc1)C(=O)O)C(C)C [3102.0340] (H-KTIYAVDSF-OH) | 6.8 nM |  | 4 nM | 
4 | CC[C@H](C)[C@H](NC(=O)[C@@H](NC(=O)[C@@H](N)CC(C)C)[C@@H](C)O)C(=O)N[C@@H](C)C(=O)N[C@@H](CS)C(=O)N[C@@H](CCCNC(=N)N)C(=O)N[C@H](C(=O)N[C@@H](CO)C(=O)N[C@@H](CC(C)C)C(=O)O)C(C)C [3102.0376] (H-LTIACRVSL-OH) | 96 nM |  | 76 nM | 
5 | CC[C@H](C)[C@H](N)C(=O)N[C@H](C(=O)N[C@H](C(=O)N1CCC[C@H]1C(=O)N[C@@H](CC(C)C)C(=O)N[C@@H](CO)C(=O)N[C@H](C(=O)N[C@@H](CO)C(=O)N[C@H](C(=O)O)[C@@H](C)CC)C(C)C)[C@@H](C)CC)[C@@H](C)CC [3102.0502] (H-IIIPLSVSI-OH) | 70 nM |  | 299 nM | 
6 | CC[C@H](C)[C@H](N)C(=O)N[C@H](C(=O)N[C@@H](C)C(=O)N[C@@H](Cc1c[nH]cn1)C(=O)N[C@@H](CC(C)C)C(=O)N[C@H](C(=O)N[C@@H](CC(N)=O)C(=O)N[C@@H](CO)C(=O)N[C@@H](CC(C)C)C(=O)O)C(C)C)[C@@H](C)O [3102.0503] (H-ITAHLVNSL-OH) | 183 nM |  | 6.5 nM | 
7 | CC(C)C[C@H](NC(=O)[C@@H](N)CCCNC(=N)N)C(=O)N[C@@H](Cc1ccccc1)C(=O)N[C@@H](Cc1ccc(O)cc1)C(=O)N[C@H](C(=O)N[C@@H](Cc1ccccc1)C(=O)N[C@@H](Cc1ccccc1)C(=O)N[C@@H](CO)C(=O)N[C@@H](Cc1ccc(O)cc1)C(=O)O)[C@@H](C)O [3102.0803] (H-RLFYTFFSY-OH) | 0.19 nM |  | 0.37 nM | 
8 | CC[C@H](C)[C@H](NC(=O)[C@H](CC(C)C)NC(=O)[C@@H](N)CCCNC(=N)N)C(=O)N[C@H](C(=O)N[C@@H](CC(C)C)C(=O)N[C@@H](Cc1ccccc1)C(=O)N[C@@H](CCC(=O)O)C(=O)N[C@H](C(=O)N[C@@H](Cc1ccccc1)C(=O)O)C(C)C)C(C)C [3102.0817] (H-RLIVLFEVF-OH) | 13 nM |  | 6.8 nM | 
9 | CC[C@H](C)[C@H](NC(=O)[C@@H](N)CCSC)C(=O)N[C@@H](Cc1ccccc1)C(=O)N[C@@H](Cc1ccccc1)C(=O)N[C@@H](CC(N)=O)C(=O)N1CCC[C@H]1C(=O)N[C@H](C(=O)N[C@@H](CO)C(=O)N[C@@H](Cc1ccccc1)C(=O)O)C(C)C [3102.0841] (H-MIFFNPVSF-OH) | 0.46 nM |  | 9.4 nM | 
10 | CC[C@H](C)[C@H](NC(=O)[C@H](CO)NC(=O)[C@@H](N)CCSC)C(=O)N[C@@H](CCSC)C(=O)N1CCC[C@H]1C(=O)N[C@H](C(=O)N[C@@H](CC(C)C)C(=O)N[C@@H](C)C(=O)N[C@@H](Cc1ccc(O)cc1)C(=O)O)C(C)C [3102.0858] (H-MSIMPVLAY-OH) | 100 nM |  | 1.4 nM | 
11 | CC(C)C[C@H](NC(=O)[C@@H](N)CC(C)C)C(=O)N[C@@H](Cc1ccc(O)cc1)C(=O)N[C@H](C(=O)N[C@@H](C)C(=O)N[C@@H](CC(N)=O)C(=O)N[C@@H](Cc1ccccc1)C(=O)N[C@H](C(=O)N[C@@H](Cc1ccccc1)C(=O)O)[C@@H](C)O)[C@@H](C)O [3102.0873] (H-LLYTANFTF-OH) | 6.7 nM |  | 2.4 nM | 
12 | CC[C@H](C)[C@H](NC(=O)[C@@H]1CCCN1C(=O)[C@H](CCC(=O)O)NC(=O)[C@H](CCC(=O)O)NC(=O)[C@H](CC(C)C)NC(=O)[C@H](Cc1ccc(O)cc1)NC(=O)[C@H](Cc1ccccc1)NC(=O)[C@H](CC(C)C)NC(=O)[C@@H](N)CCSC)C(=O)O [3102.0881] (H-MLFYLEEPI-OH) | 2.5 nM |  | 45 nM | 
13 | CC[C@H](C)[C@H](NC(=O)[C@@H](NC(=O)[C@@H](N)CO)[C@@H](C)CC)C(=O)N[C@@H](CO)C(=O)N[C@@H](CC(C)C)C(=O)N[C@@H](Cc1ccccc1)C(=O)N[C@@H](Cc1ccc(O)cc1)C(=O)N[C@H](C(=O)N[C@@H](Cc1ccccc1)C(=O)O)[C@@H](C)O [3102.0919] (H-SIISLFYTF-OH) | 5.7 nM |  | 1.4 nM | 
14 | CC(C)C[C@H](N)C(=O)N[C@H](C(=O)N[C@@H](Cc1ccccc1)C(=O)N[C@@H](CC(=O)O)C(=O)N[C@@H](Cc1ccc(O)cc1)C(=O)N[C@H](C(=O)N[C@H](C(=O)N[C@H](C(=O)N[C@@H](Cc1ccccc1)C(=O)O)[C@@H](C)O)C(C)C)C(C)C)[C@@H](C)O [3102.0931] (H-LTFDYVVTF-OH) | 17 nM |  | 2.5 nM | 
15 | CC[C@H](C)[C@H](NC(=O)[C@@H](NC(=O)[C@@H](N)CC(C)C)[C@@H](C)CC)C(=O)N[C@H](C(=O)N[C@@H](CCCCN)C(=O)N[C@H](C(=O)N[C@@H](Cc1ccccc1)C(=O)N[C@@H](CO)C(=O)N[C@@H](Cc1ccccc1)C(=O)O)C(C)C)[C@@H](C)O [3102.1011] (H-LIITKVFSF-OH) | 84 nM |  | 7.7 nM | 
16 | CC[C@H](C)[C@H](NC(=O)[C@@H](N)CC(N)=O)C(=O)N[C@@H](Cc1ccccc1)C(=O)N1CCC[C@H]1C(=O)N[C@@H](Cc1ccccc1)C(=O)N[C@@H](Cc1ccccc1)C(=O)N[C@H](C(=O)N[C@@H](C)C(=O)N[C@@H](Cc1ccccc1)C(=O)O)C(C)C [3102.1019] (H-NIFPFFVAF-OH) | 12 nM |  | 2.2 nM | 
17 | CC[C@H](C)[C@H](NC(=O)[C@@H](NC(=O)[C@@H](N)CCCCN)[C@@H](C)O)C(=O)N[C@@H](C)C(=O)N[C@@H](CCCNC(=N)N)C(=O)N[C@@H](Cc1ccccc1)C(=O)N[C@H](C(=O)N[C@@H](Cc1ccc(O)cc1)C(=O)N[C@@H](Cc1ccccc1)C(=O)O)[C@@H](C)O [3102.1031] (H-KTIARFTYF-OH) | 95 nM |  | 0.2 nM | 
18 | CC(C)C[C@H](NC(=O)[C@H](Cc1ccccc1)NC(=O)[C@H](Cc1c[nH]c2ccccc12)NC(=O)[C@H](CC(C)C)NC(=O)[C@@H](N)CC(C)C)C(=O)N[C@H](C(=O)NCC(=O)N[C@H](C(=O)N[C@@H](Cc1ccccc1)C(=O)O)[C@@H](C)O)[C@@H](C)O [3102.1045] (H-LLWFLTGTF-OH) | 93 nM |  | 0.78 nM | 
19 | CC(C)C[C@H](NC(=O)[C@@H](N)CCCCN)C(=O)N[C@@H](CC(N)=O)C(=O)N[C@@H](CC(N)=O)C(=O)N[C@H](C(=O)N[C@@H](Cc1ccccc1)C(=O)N[C@@H](Cc1ccc(O)cc1)C(=O)N[C@H](C(=O)N[C@@H](Cc1ccccc1)C(=O)O)C(C)C)C(C)C [3102.1169] (H-KLNNVFYVF-OH) | 0.52 nM |  | 1.2 nM | 
20 | CC(C)C[C@H](NC(=O)[C@@H](NC(=O)[C@H](CC(N)=O)NC(=O)[C@H](C)NC(=O)[C@H](CC(N)=O)NC(=O)[C@H](Cc1ccc(O)cc1)NC(=O)[C@H](Cc1ccccc1)NC(=O)[C@H](CCC(N)=O)NC(=O)[C@@H](N)CCCNC(=N)N)C(C)C)C(=O)O [3102.1205] (H-RQFYNANVL-OH) | 37 nM |  |  | 0.24 nM
21 | CC[C@H](C)[C@H](NC(=O)[C@@H](NC(=O)[C@@H]1CCCN1C(=O)[C@H](CC(C)C)NC(=O)[C@H](Cc1ccccc1)NC(=O)[C@H](CO)NC(=O)[C@H](CCSC)NC(=O)[C@@H](N)CCCCN)[C@@H](C)CC)C(=O)N[C@@H](Cc1ccccc1)C(=O)O [3102.1291] (H-KMSFLPIIF-OH) | 6.7 nM |  |  | 0.08 nM
22 | CC[C@H](C)[C@H](N)C(=O)N[C@@H](CC(C)C)C(=O)N[C@@H](CCSC)C(=O)N[C@H](C(=O)N[C@@H](Cc1ccccc1)C(=O)N[C@H](C(=O)N[C@@H](CO)C(=O)N[C@@H](CO)C(=O)N[C@@H](Cc1ccccc1)C(=O)O)[C@@H](C)CC)[C@@H](C)CC [3102.1302] (H-ILMIFISSF-OH) | 87 nM |  |  | 12 nM
23 | CC[C@H](C)[C@H](N)C(=O)N[C@H](C(=O)N[C@@H](Cc1ccccc1)C(=O)N[C@@H](CCSC)C(=O)N[C@@H](CC(N)=O)C(=O)N[C@@H](CC(C)C)C(=O)N[C@@H](Cc1ccc(O)cc1)C(=O)N[C@@H](CO)C(=O)N[C@@H](Cc1ccccc1)C(=O)O)[C@@H](C)CC [3102.1328] (H-IIFMNLYSF-OH) | 1.3 nM |  |  | 11 nM
24 | CSCC[C@H](NC(=O)[C@H](Cc1ccc(O)cc1)NC(=O)[C@H](CC(C)C)NC(=O)[C@@H](N)CC(C)C)C(=O)N[C@@H](Cc1ccccc1)C(=O)N1CCC[C@H]1C(=O)N[C@@H](CC(N)=O)C(=O)N[C@@H](CC(C)C)C(=O)N[C@@H](Cc1ccccc1)C(=O)O [3102.1335] (H-LLYMFPNLF-OH) | 90 nM |  |  | 0.11 nM
